The source of these data is ChEMBL document CHEMBL1201862, “PubChem BioAssay data set” (2004).

Among the test systems are SNB-78; DLD-1; DMS-114; LXFL 529; KM-20L2; RXF 631; M19-MEL; HOP-18; DMS-273.
Experiment in all cases: NCI anticancer screen, dose series, 48 h

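Exposure lasted 48 hours, with cells grown in 96-well plates and compounds tested at five concentrations. GI50 is the concentration that inhibits growth by half.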 Activity calls are given as the source filed them. Cut-off read from the data, not from the text of the source: active = GI50 up to about 1.1 µM and inactive = higher.

As to `Nc1ccc2c(SCC(=O)Nc3ccccc3-c3ccccc3NC(=O)CSc3c4ccccc4nc4cc(N)ccc34)c3ccccc3nc2c1`, the GI50 was 40.9 µM (inactive) in the assay with SNB-78; 12.9 µM (inactive) in the assay on DLD-1; 18.9 µM (inactive) with DMS-114; 11.5 µM (inactive) in the assay with LXFL 529; 33.1 µM (inactive) in the assay with KM-20L2; 27.9 µM (inactive) in the assay with RXF 631. Also, the GI50 in the assay with M19-MEL is 20.2 µM (inactive); in the assay on HOP-18, 26 µM (inactive); in the assay on DMS-273, 33 µM (inactive).
For `COc1ccc(OC)c(/C=C/C(=O)C(C)(C)C)c1`, the GI50 in the assay with DLD-1 was 19.9 µM (inactive); with DMS-114 it was 15.2 µM (inactive); in the assay with LXFL 529, 19.2 µM (inactive); in the assay with KM-20L2, 23.6 µM (inactive); with RXF 631, 32.8 µM (inactive); in the assay on M19-MEL, 16.3 µM (inactive). For the same molecule, the GI50 is 21.3 µM (inactive) in the assay on HOP-18 and 21.1 µM (inactive) with DMS-273.
In the case of `CSc1nc2c(c(O)c(C)c(=O)n2C2OCC(OC(C)=O)C(OC(C)=O)C2OC(C)=O)c(=O)n1C` (configuration not stated), the GI50 in the assay on SNB-78, with DLD-1, in the assay on DMS-114, with LXFL 529, with KM-20L2 and in the assay with M19-MEL was > 100 µM (inactive) throughout.
`Cc1ccccc1C1SCc2nc3ccccc3n21` (configuration not stated): the GI50 in the assay with SNB-78 was > 100 µM (inactive); in the assay on DLD-1, > 100 µM (inactive); with DMS-114 it was 6.79 µM (inactive); in the assay with M19-MEL, > 100 µM (inactive); with HOP-18 it was > 100 µM (inactive); in the assay with DMS-273 it was 4.6 µM (inactive).
On to `C1=CC2SSSC2C1` (configuration not stated), for which the GI50 with DLD-1, with DMS-114, in the assay on LXFL 529, in the assay on KM-20L2, in the assay with M19-MEL and in the assay with HOP-18 was > 100 µM (inactive) throughout. Besides, in the assay on DMS-273, the GI50 was > 100 µM (inactive).
Turning to `N=C(N)/N=C(/C=C/c1ccccc1)CC1OC(=O)c2ccccc21` (configuration not stated), the GI50 in the assay on DLD-1, in the assay on DMS-114, in the assay with LXFL 529, in the assay on KM-20L2, in the assay on M19-MEL and with DMS-273 was > 100 µM (inactive) each time.
As for `CC(C)(C)OC(=O)N[C@H]1CC(O)c2ccccc2N(CC(=O)O)C1=O` (some centres not stated), the GI50 in the assay on DLD-1, with DMS-114, with LXFL 529, in the assay with KM-20L2, with RXF 631 and in the assay with M19-MEL was > 100 µM (inactive) in each case. Also, the GI50 in the assay on HOP-18 and in the assay with DMS-273 was > 100 µM (inactive) each time.
Regarding `COc1cc2cc3c4c(cc(OC)c(OC)c4c2cc1OC)CCN3C(=O)CCCC(=O)O`, the GI50 in the assay on SNB-78 was 48.1 µM (inactive); with DLD-1, > 100 µM (inactive); in the assay with DMS-114, > 100 µM (inactive); with LXFL 529, > 100 µM (inactive); with KM-20L2, > 100 µM (inactive); with M19-MEL, > 100 µM (inactive). Besides, in the assay on DMS-273, the GI50 is > 100 µM (inactive).
In the case of `COc1ccc(NC(=O)C2=CC(=O)c3ccc(O)cc3C2=O)c(OC)c1`, the GI50 in the assay on SNB-78, with DLD-1, with DMS-114, with LXFL 529, with KM-20L2 and in the assay with RXF 631 was > 100 µM (inactive) each time. In addition, the GI50 in the assay with M19-MEL and with HOP-18 was > 100 µM (inactive) each time.
With `NN/C(Cc1ccccc1)=N/NC(N)=S`, the GI50 with DLD-1 was > 100 µM (inactive); in the assay with DMS-114 it was 41.3 µM (inactive); with LXFL 529, > 100 µM (inactive); in the assay on KM-20L2, > 100 µM (inactive); with RXF 631, > 100 µM (inactive); in the assay on M19-MEL, > 100 µM (inactive). The GI50 in the assay with HOP-18 was 24 µM (inactive); with DMS-273 it was > 100 µM (inactive).
With `C/C=C1\CCC2c3[nH]c4ccccc4c3CCN2C1` (configuration not stated), the GI50 was > 100 µM (inactive) in the assay on SNB-78; > 100 µM (inactive) with DLD-1; 91.8 µM (inactive) in the assay on DMS-114; > 100 µM (inactive) with LXFL 529; 45.6 µM (inactive) with KM-20L2; > 100 µM (inactive) in the assay on M19-MEL. In addition, the GI50 with DMS-273 was > 100 µM (inactive).
Consider `CCOC(=O)/C(=C/c1ccccc1)N(CC)CC`, for which the GI50 with SNB-78, with DMS-114, with LXFL 529, in the assay on KM-20L2, in the assay on M19-MEL and in the assay on DMS-273 was > 100 µM (inactive) in each case.
For `Cc1cc2c(C)n(Cc3ccc(Cl)cc3Cl)nc2c(C(=O)O)c1C`, the GI50 in the assay on SNB-78, in the assay with DLD-1, in the assay with LXFL 529, in the assay on KM-20L2, in the assay with RXF 631 and in the assay with M19-MEL was > 100 µM (inactive) in each case. The GI50 in the assay on HOP-18 and in the assay with DMS-273 was > 100 µM (inactive) throughout.
As for `Cc1nn(-c2ccccc2)c(S)c1C(=O)c1ccccc1`, the GI50 in the assay on SNB-78 was 24.4 µM (inactive); with DLD-1, 4.85 µM (inactive); with DMS-114 it was 26.4 µM (inactive); in the assay with LXFL 529 it was 18.2 µM (inactive); in the assay with KM-20L2, 53 µM (inactive); in the assay with RXF 631, 27 µM (inactive). For the same molecule, the GI50 with HOP-18 was < 0.01 µM (active); with DMS-273, 40.1 µM (inactive).
Turning to `COc1ccc(CCN(C)C2CCC(C#N)(c3ccc(OC)c(OC)c3)CC2)cc1OC` (configuration not stated), the GI50 is > 100 µM (inactive) with DLD-1; > 100 µM (inactive) in the assay on LXFL 529; 48.4 µM (inactive) in the assay on KM-20L2; 61.2 µM (inactive) in the assay on RXF 631; > 100 µM (inactive) in the assay with M19-MEL; > 100 µM (inactive) in the assay with HOP-18. Moreover, the GI50 in the assay with DMS-273 was > 100 µM (inactive).
`Nc1ccc(CCN2CCN(c3cccc(C(F)(F)F)c3)CC2)cc1`: the GI50 in the assay on DLD-1 was 97.1 µM (inactive); with DMS-114 it was 26.4 µM (inactive); with LXFL 529 it was > 100 µM (inactive); in the assay with KM-20L2, > 100 µM (inactive); with RXF 631, 56.5 µM (inactive); in the assay on M19-MEL, > 100 µM (inactive). Moreover, the GI50 in the assay with HOP-18 is > 100 µM (inactive).
For the molecule `S=C(N/N=C/c1ccccc1)NC1CC(c2ccccc2)Oc2ccccc21` (configuration not stated), the GI50 in the assay on SNB-78 is 22 µM (inactive); in the assay with DLD-1, 91.8 µM (inactive); with DMS-114 it was 43.2 µM (inactive); with LXFL 529, > 100 µM (inactive); in the assay with M19-MEL it was > 100 µM (inactive); in the assay with DMS-273, 66.7 µM (inactive).
With `CCOC(=O)/C(O)=C(/C(=O)OC)c1ccc(Cl)cc1`, the GI50 in the assay with SNB-78, with DLD-1, in the assay with DMS-114, in the assay on LXFL 529, in the assay on KM-20L2 and in the assay with RXF 631 was > 100 µM (inactive) each time. Moreover, the GI50 in the assay with M19-MEL and in the assay with DMS-273 was > 100 µM (inactive) each time.
Take `Cc1ccc(Cc2c(=O)[nH]nc3ccccc23)cc1`: the GI50 in the assay with SNB-78, with DLD-1, in the assay with DMS-114, with KM-20L2, with RXF 631 and with M19-MEL was > 100 µM (inactive) in each case. Besides, the GI50 with HOP-18 and with DMS-273 was > 100 µM (inactive) each time.
`COc1cc(CC2c3cc(OC)c(OC)cc3CCN2C)c(C(=O)O)cc1OC` (configuration not stated): the GI50 in the assay on SNB-78, in the assay on DLD-1, in the assay on DMS-114, in the assay on LXFL 529, in the assay on KM-20L2 and with M19-MEL was > 100 µM (inactive) in each case. Also, the GI50 in the assay with HOP-18 and in the assay with DMS-273 was > 100 µM (inactive) each time.
As to `CCC1CC(C)=CCN1S(=O)(=O)c1ccc(C)cc1` (configuration not stated), the GI50 was 15.9 µM (inactive) in the assay on DMS-114, 12.9 µM (inactive) in the assay with LXFL 529, 19.2 µM (inactive) in the assay with KM-20L2 and 22 µM (inactive) in the assay with DMS-273.
With `O=C(CC1C(=O)Nc2ccccc2[S+]1[O-])Nc1cccc(Cl)c1` (configuration not stated), the GI50 with SNB-78 was 40.9 µM (inactive); with DLD-1, > 100 µM (inactive); in the assay with DMS-114, 47.1 µM (inactive); with LXFL 529, 91.8 µM (inactive); in the assay with KM-20L2 it was > 100 µM (inactive); with M19-MEL, > 100 µM (inactive). Also, the GI50 with HOP-18 is > 100 µM (inactive).
As to `CC12Oc3ccc4ccccc4c3CC1Cc1c(ccc3ccccc13)O2` (configuration not stated), the GI50 is 58.1 µM (inactive) in the assay on DLD-1; 60.1 µM (inactive) in the assay with DMS-114; 45.4 µM (inactive) in the assay with LXFL 529; > 100 µM (inactive) with KM-20L2; > 100 µM (inactive) with M19-MEL; 35.9 µM (inactive) with HOP-18. Also, in the assay on DMS-273, the GI50 is 18.8 µM (inactive).
On to `CCOc1ccc(NCC2CC/C(=C\c3ccc(Cl)cc3)C2=O)cc1` (configuration not stated), for which the GI50 was 98.9 µM (inactive) in the assay with SNB-78; 10 µM (inactive) in the assay on DLD-1; 26.4 µM (inactive) in the assay with DMS-114; 13.1 µM (inactive) in the assay with LXFL 529; > 38.3 µM (inactive) with KM-20L2; > 42.4 µM (inactive) in the assay on M19-MEL. The GI50 in the assay with HOP-18 is 22.1 µM (inactive); in the assay with DMS-273, > 39.8 µM (inactive).
`O=C(N/C(=C\c1ccc([N+](=O)[O-])cc1)c1nc2ccccc2s1)c1ccccc1`: the GI50 with SNB-78 is 37.4 µM (inactive); in the assay on DLD-1 it was 19.9 µM (inactive); in the assay on DMS-114, 23.3 µM (inactive); with LXFL 529 it was 18.8 µM (inactive); in the assay on KM-20L2 it was 40.7 µM (inactive); in the assay on M19-MEL it was 22.9 µM (inactive). For the same molecule, the GI50 in the assay on HOP-18 was 18.5 µM (inactive); in the assay on DMS-273 it was 35.7 µM (inactive).
As for `O=C1CCC2(c3ccc(F)cc3)Nc3ccccc3N12` (configuration not stated), the GI50 with SNB-78, with DLD-1, in the assay with DMS-114, in the assay on LXFL 529, with KM-20L2 and in the assay on RXF 631 was > 100 µM (inactive) each time. In addition, the GI50 in the assay on M19-MEL was > 100 µM (inactive).
